Results reported in patent US20220339143A1, “TAK-925 FOR USE IN TREATING NARCOLEPSY” (Takeda Pharmaceutical Company Limited, priority 2019, published 2022).
Read-outs that look alike come from different tables or passages of the source.

Assay: Single dose PK in healthy subjects (Cohorts 1, 2, S1 and S2), plasma
Assay type: in vivo, human
Conditions: human, plasma, intravenous
Description: This study investigates (i) the safety and tolerability of Compound A (methyl (2R,3S)-3-((methylsulfonyl)amino)-2-(((cis-4-phenylcyclohexyl)oxy)methyl)piperidine-1-carboxylate) when a single dose given as a 9 hour continuous IV infusion is administered to healthy adults, healthy elderly subjects and patients with narcolepsy type 1 (NT1); (ii) the pharmacokinetics of Compound A when a single dose given as a 9 hour continuous IV infusion is administered to healthy adults, healthy elderly subjects and patients with narcolepsy type 1; and (iii) the pharmacodynamics (PD) effects of Compound A, primarily by evaluation of the sleep latency on MWT when a single dose given as a 9 hour continuous IV infusion is administered to patients with narcolepsy type 1.
Pharmacokinetics: Concentrations of Compound A in plasma, and CSF, and pharmacokinetics parameters.
On average, the time to reach the plateau appeared to be approximately 3 to 4 hours after the start of infusion. […] After switching off the IV infusion, Compound A plasma concentrations declined rapidly and in a biphasic manner with a mean terminal disposition phase t1/2z ranging approximately from 3.4 to 5.1 hours across all doses. […] Table 5 provides a summary of plasma concentrations of Compound A after a single IV infusion in healthy subjects. Table 6 provides a summary of pharmacokinetic parameters of Compound A after a single IV infusion in healthy subjects.

[1] = 112 mg, read-out: Plasma concentration, Median
[2] = 112 mg, read-out: Plasma concentration, Minimum
[3] = 112 mg, read-out: Plasma concentration, Q1
[4] = 112 mg, read-out: Plasma concentration, Q3
[5] = 112 mg, read-out: Plasma concentration, Maximum
[6] = 112 mg, read-out: Plasma concentration, Mean
[7] = 134.4 mg, read-out: Plasma concentration, Maximum
[8] = 134.4 mg, read-out: Plasma concentration, Mean
[9] = 134.4 mg, read-out: Plasma concentration, Median
[10] = 134.4 mg, read-out: Plasma concentration, Minimum
[11] = 134.4 mg, read-out: Plasma concentration, Q1
[12] = 134.4 mg, read-out: Plasma concentration, Q3

**Q.** Which results are given for `COC(=O)N1CCC[C@H](NS(C)(=O)=O)[C@@H]1CO[C@H]1CC[C@@H](c2ccccc2)CC1` [Compound A, methyl (2R,3S)-3-((methylsulfonyl)amino)-2-(((cis-4-phenylcyclohexyl)oxy)methyl)piperidine-1-carboxylate]?
**A.** concentration at 1.5 h [1]: 197 ng/mL; concentration at 1.5 h [2]: 141 ng/mL; concentration at 1.5 h [3]: 164 ng/mL; concentration at 1.5 h [4]: 213 ng/mL; concentration at 2 h [5]: 223 ng/mL; concentration at 2 h [6]: 200 ng/mL; concentration at 2 h [1]: 207 ng/mL; concentration at 2 h [2]: 150 ng/mL; concentration at 2 h [3]: 195 ng/mL; concentration at 2 h [4]: 220 ng/mL; concentration at 3 h [5]: 276 ng/mL; concentration at 3 h [6]: 222 ng/mL; concentration at 3 h [1]: 216 ng/mL; concentration at 3 h [2]: 171 ng/mL; concentration at 3 h [3]: 209 ng/mL; concentration at 3 h [4]: 248 ng/mL; concentration at 4 h [5]: 290 ng/mL; concentration at 4 h [6]: 224 ng/mL; concentration at 4 h [1]: 216 ng/mL; concentration at 4 h [2]: 154 ng/mL; concentration at 4 h [3]: 215 ng/mL; concentration at 4 h [4]: 252 ng/mL; concentration at 6 h [5]: 206 ng/mL; concentration at 6 h [6]: 189 ng/mL; concentration at 6 h [1]: 192 ng/mL; concentration at 6 h [2]: 154 ng/mL; concentration at 6 h [3]: 186 ng/mL; concentration at 6 h [4]: 205 ng/mL; concentration at 8 h [5]: 221 ng/mL; concentration at 8 h [6]: 194 ng/mL; concentration at 8 h [1]: 195 ng/mL; concentration at 8 h [2]: 162 ng/mL; concentration at 8 h [3]: 176 ng/mL; concentration at 8 h [4]: 216 ng/mL; concentration at 9 h [5]: 247 ng/mL; concentration at 9 h [6]: 216 ng/mL; concentration at 9 h [1]: 221 ng/mL; concentration at 9 h [2]: 169 ng/mL; concentration at 9 h [3]: 192 ng/mL; concentration at 9 h [4]: 245 ng/mL; concentration at 0.5 h [7]: 201 ng/mL; concentration at 0.5 h [8]: 162 ng/mL; concentration at 0.5 h [9]: 152 ng/mL; concentration at 0.5 h [10]: 147 ng/mL; concentration at 0.5 h [11]: 148 ng/mL; concentration at 0.5 h [12]: 169 ng/mL; concentration at 1 h [7]: 273 ng/mL; concentration at 1 h [8]: 204 ng/mL; concentration at 1 h [9]: 187 ng/mL; concentration at 1 h [10]: 181 ng/mL; concentration at 1 h [11]: 181 ng/mL; concentration at 1 h [12]: 216 ng/mL; concentration at 1.5 h [7]: 289 ng/mL; concentration at 1.5 h [8]: 228 ng/mL; concentration at 1.5 h [9]: 221 ng/mL; concentration at 1.5 h [10]: 191 ng/mL; concentration at 1.5 h [11]: 197 ng/mL; concentration at 1.5 h [12]: 250 ng/mL; concentration at 2 h [7]: 335 ng/mL; concentration at 2 h [8]: 248 ng/mL; concentration at 2 h [9]: 244 ng/mL; concentration at 2 h [10]: 192 ng/mL; concentration at 2 h [11]: 199 ng/mL; concentration at 2 h [12]: 276 ng/mL; concentration at 3 h [7]: 388 ng/mL; concentration at 3 h [8]: 288 ng/mL; concentration at 3 h [9]: 278 ng/mL; concentration at 3 h [10]: 217 ng/mL; concentration at 3 h [11]: 260 ng/mL; concentration at 3 h [12]: 305 ng/mL; concentration at 4 h [7]: 355 ng/mL; concentration at 4 h [8]: 294 ng/mL; concentration at 4 h [9]: 308 ng/mL; concentration at 4 h [10]: 214 ng/mL; concentration at 4 h [11]: 256 ng/mL; concentration at 4 h [12]: 324 ng/mL; concentration at 6 h [7]: 302 ng/mL; concentration at 6 h [8]: 248 ng/mL; concentration at 6 h [9]: 260 ng/mL; concentration at 6 h [10]: 164 ng/mL; concentration at 6 h [11]: 206 ng/mL; concentration at 6 h [12]: 295 ng/mL; concentration at 8 h [7]: 313 ng/mL; concentration at 8 h [8]: 262 ng/mL; concentration at 8 h [9]: 262 ng/mL; concentration at 8 h [10]: 199 ng/mL; concentration at 8 h [11]: 242 ng/mL; concentration at 8 h [12]: 291 ng/mL; concentration at 9 h [7]: 330 ng/mL; concentration at 9 h [8]: 292 ng/mL; concentration at 9 h [9]: 300 ng/mL; concentration at 9 h [10]: 241 ng/mL; concentration at 9 h [11]: 268 ng/mL; concentration at 9 h [12]: 311 ng/mL; concentration at 0.5 h (180 mg, read-out: Plasma concentration, Maximum): 224 ng/mL; concentration at 0.5 h (180 mg, read-out: Plasma concentration, Mean): 180 ng/mL; concentration at 0.5 hr (180 mg, read-out: Plasma concentration, Median): 170 ng/mL; concentration at 0.5 hr (180 mg, read-out: Plasma concentration, Minimum): 161 ng/mL; concentration at 0.5 hr (180 mg, read-out: Plasma concentration, Q1): 163 ng/mL; concentration at 0.5 hr (180 mg, read-out: Plasma concentration, Q3): 194 ng/mL
